test system: P. falciparum 3D7 growth, pLDH absorbance; experiment: P. falciparum 3D7 growth inhibition, dose response, strain 3D7 (AID 2305)

Row | SMILES | IC50
1 | O=C(c1cc2cccc([N+](=O)[O-])c2[nH]1)N1CCC(CCN2CCC(c3c[nH]c4ccccc34)CC2)CC1 | 940 nM
2 | O=C(NC1CCC1)C1CCN(C(c2ccc(Cl)cc2)c2ccc(Cl)cc2)CC1 | 560 nM
3 | CC(C)CNC(=O)c1cncc(-c2ccc(CNC3Cc4ccccc4C3)cc2)c1 | 700 nM
4 | CCc1ccc2nc(-c3ccc(F)cc3)nc(SCC(=O)Nc3sc(C)c(C)c3C#N)c2c1 | 640 nM
5 | CN1CCC[C@H]1COc1ccc(CN2CC[C@H](NC(=O)c3ccc(Cl)c(Cl)c3)C2)c2ccccc12 | 950 nM
6 | O=C(/C=C/c1ccc(Cl)cc1Cl)NC1CCC(CN2CCC(c3c[nH]c4ccccc34)CC2)CC1 (stereo not given) | 800 nM
7 | CN(C)CCCn1cncc1-c1ccc2ncnc(Nc3ccc4c(cnn4Cc4ccccc4)c3)c2c1 | 730 nM
8 | Nc1nccc2ccc(-c3cccc(O)c3)cc12 | 640 nM
9 | Cc1cc(OCC2CCCO2)c2cc(NC(=O)C(=O)Nc3ccc4nc(C)cc(OCC5CCCO5)c4c3)ccc2n1 (stereo not given) | 800 nM
10 | O=C(/C=C/c1ccc(Cl)c(Cl)c1)NCCCCCCN1CCCN(C(=O)Nc2ccc(F)c(Cl)c2)CC1 | 740 nM
11 | COc1cccc(C2CCN(CCN3CCC(CNC(=O)c4ccc(-c5ccc(C(F)(F)F)cc5)cc4)CC3)CC2)c1 | 890 nM
12 | Nc1ncc(-c2ccc(S(=O)(=O)Nc3ccc(C(=O)N[C@@H](CCC(=O)O)C(=O)O)cc3)cc2)c(=O)[nH]1 | 800 nM
13 | CC(C)CCN1CCC(Oc2ccc(NC(=O)c3ccco3)cc2Cl)CC1 | 680 nM
14 | Cc1nc(N)nc(N)c1-c1ccc(Br)c([N+](=O)[O-])c1 | 200 nM
15 | CCN(CC)CCN(Cc1ccc(-c2ccc(C(F)(F)F)cc2)cc1)C(=O)Cn1nc(-c2ccc(C(F)(F)F)cc2)ccc1=O | 800 nM
16 | COc1cc(C(=O)Nc2cccc(-c3cn4ccc(C)cc4n3)c2)cc(OC)c1OC | 760 nM
17 | CC[C@H]1CN2CC[C@H]1C[C@H]2[C@H](O)c1cc(-c2cccc(Cl)c2)nc2ccc(OC)cc12 | 170 nM
18 | O=C(NCC1CCC(CNCCCc2ccccc2)CC1)c1cc(Cl)cc(Cl)c1 (stereo not given) | 850 nM
19 | Cc1cc(N2CCOCC2)nc2ccc(NC(=O)c3cccc([N+](=O)[O-])c3)cc12 | 890 nM
20 | O=C(NCc1ccccc1)Nc1ccc(-c2cccc(-c3nc4ccc(C(F)(F)F)cc4[nH]3)c2)cc1 | 660 nM
21 | COc1cccc(CN2CCCN(Cc3cccc(NC(=O)c4cc5ccccc5s4)c3)CC2)c1 | 1010 nM
22 | CC(=O)C1(c2ccccc2)CCN(CCC2(c3ccc(Cl)c(Cl)c3)CN(C(=O)Nc3cccc(C(F)(F)F)c3)CCO2)CC1 (stereo not given) | 1050 nM
23 | Cc1cccc2[nH]c(-c3ccc(-c4ccc(CN5CCCC(N)C5)cc4)s3)nc12 (stereo not given) | 380 nM
24 | Oc1ccc(CCNc2nc(NCc3ccccc3-c3ccccc3)nc(N3CCCNCC3)n2)cc1 | 880 nM

Row | SMILES | IC50
25 | O=C(NC1CCC(N2CCCC(OCc3ccccc3)C2)CC1)c1cc2ccccc2[nH]1 (stereo not given) | 1210 nM
26 | COc1ccc2nccc([C@@H](O)CN3CCC(NCc4ccc(OC)c(NC(C)=O)c4)CC3)c2c1 | 840 nM
27 | NOCCCOc1ccccc1 | 320 nM
28 | c1ccc(CCNCc2ccc(-c3ccc(CNc4ccc5ncccc5c4)cc3)cc2)cc1 | 920 nM
29 | N#Cc1ccc2c(c1)CCN(CCC1CCC(NC(=O)/C=C/c3ccc(F)c4ccccc34)CC1)CC2 (stereo not given) | 840 nM
30 | CC(=O)c1cccc2[nH]c(C(=O)NC3CCC(CCN4CCc5ccc(C#N)cc5C4)CC3)cc12 (stereo not given) | 840 nM
31 | OC(c1n[nH]c(=S)n1-c1ccccc1)C(O)c1n[nH]c(=S)n1-c1ccccc1 (stereo not given) | 740 nM
32 | O=C(Nc1cccc2ccccc12)N1CCC(NS(=O)(=O)c2cccc(C(F)(F)F)c2)CC1 | 910 nM
33 | O=C(CCc1cnc[nH]1)Nc1ccc(-c2ccc(-c3nc4ccccc4[nH]3)cc2)cc1 | 710 nM
34 | c1ccc2c(C3CCN(CCCCOc4ccc5c(c4)CCN(C4CCC4)CC5)CC3)c[nH]c2c1 | 710 nM
35 | O=C(CSc1nccn1C1CCCC1)Nc1cc(C(F)(F)F)ccc1Cl | 380 nM
36 | Cc1nc2ccc3ccc(CN(C)c4ccc(C(=O)N[C@@H](CCC(=O)O)C(=O)O)cc4)cc3c2c(=O)[nH]1 | 880 nM
37 | CN1CCCc2ccc(NC(=O)Nc3ccc(-c4ccccc4)cc3)cc2C1 | 380 nM
38 | CCCCCCN1CCN(Cc2cccc(NC(=O)c3cccc(OCC)c3)c2)CC1 | 1110 nM
39 | Cc1cccc(S(=O)(=O)Nc2cccc(CCN3CCC(N4CCCCC4)CC3)c2)c1 | 1330 nM
40 | Oc1ccc(Br)cc1-c1nc2ccc(Cl)cc2nc1-c1cc(Br)ccc1O | 790 nM
41 | CS(=O)(=O)CCNCc1cccc(-c2cc3c(Nc4ccc(OCc5cccc(F)c5)c(Cl)c4)ncnc3s2)c1 | 200 nM
42 | COc1ccc2nccc([C@@H](O)CN3CCC(NCCOc4ccccc4C(F)(F)F)CC3)c2c1 | 750 nM
43 | COC(=O)c1cccc(CNCc2ccc(-c3cccc(-c4nc5ccc(C(F)(F)F)cc5[nH]4)c3)cc2)c1 | 160 nM
44 | O=C(Nc1ccc(Cl)cc1)Nc1ccc(-c2cccc(-c3nc4ccc(F)cc4[nH]3)c2)cc1 | 290 nM
45 | CC[C@H]1CN2CC[C@@H]1C[C@H]2[C@H](O)c1cc(-c2c(C)noc2C)nc2ccc(OC)cc12 | 30 nM
46 | c1ccc(-c2nc(NC3CCCCC3)cc(C3CC3)n2)nc1 | 730 nM
47 | COc1cccc(COCC(O)CN(CCc2ccccn2)C(=O)c2ccccc2F)c1 (stereo not given) | 820 nM
48 | CCSc1nnc(C2CCCN(CC(=O)Nc3cc(C(F)(F)F)ccc3Cl)C2)n1CC (stereo not given) | 230 nM

Row | SMILES | IC50
49 | COc1ccc(OC)c(NC(=O)c2c(-c3c(F)cccc3Cl)noc2C)c1 | 700 nM
50 | CC(C)(C)c1nn(-c2ccc(Cl)cc2)c2[nH]c(=O)c(CNCc3ccc4c(c3)OCO4)cc12 | 810 nM
51 | O=C(Nc1ccc(CCN2CCC(c3nc(COCC(F)(F)F)c(-c4ccccc4)o3)CC2)cc1)c1ccc(F)cc1 | 1970 nM
52 | Cc1cccc(C(=O)Nc2ccnc(N3CCC(N(C)Cc4ccc(C#N)cc4)CC3)c2)c1 | 910 nM
53 | CCC1CN2CCc3cc(OC)c(OC)cc3C2CC1CC1NCCc2c1[nH]c1ccc(O)cc21 (stereo not given) | 100 nM
54 | O=C(NCc1ccc(F)cc1)Nc1cccc(-c2ccc(-c3nc4ccc(F)cc4[nH]3)cc2)c1 | 230 nM
55 | Cc1cc(NCCC(=O)Nc2ccccc2)nc(NCCOc2ccccc2)n1 | 1140 nM
56 | CCC(CC)(Cc1ccccc1)NC(=O)[C@H](Cc1ccc(OC)c(OC)c1)Nc1ccc(C#N)c2ccccc12 | 870 nM
57 | CN(Cc1cccc(O)c1)C1CCCN(c2cc(NC(=O)c3ccc(F)cc3)ccn2)C1 (stereo not given) | 1070 nM
58 | CC(C)CNC(=O)c1ccnc(-c2ccc(CNCCCc3ccccc3)cc2)c1 | 730 nM
59 | O=C(NC1CCC(N2CCC(c3nc4ccccc4s3)CC2)CC1)c1cc2ccccc2[nH]1 (stereo not given) | 930 nM
60 | Cn1nc(C(=O)N2CCC(c3[nH]ncc3Cc3ccccc3)CC2)c2ccccc2c1=O | 300 nM
61 | COCCNCc1cccc(-c2cccc(CNC3CCN(Cc4ccccc4)CC3)c2)c1 | 280 nM
62 | CC(=O)c1cccc(NC(=O)C2c3ccccc3C(=O)N(CC(C)C)C2c2cccs2)c1 (stereo not given) | 590 nM
63 | Cn1cc(CN2CCCC(COC(c3ccccc3)c3ccccc3)C2)cn1 (stereo not given) | 770 nM
64 | COc1ccc2c(c1)ncn2-c1cc(OCc2ccncc2Br)c(C(N)=O)s1 | 610 nM
65 | CCNc1cc(C(=O)N[C@@H](Cc2ccccc2)[C@H](O)CNC2CCC(F)(F)CC2)c(F)c(N2CCCCS2(=O)=O)c1 | 210 nM
66 | CC(=O)N1Cc2ccccc2C1=O | 520 nM
67 | O=C(O)c1ccc2nc(-c3ccc(-c4ccccc4)cc3)n(C3CCN(Cc4ccc(-c5ncc[nH]5)cc4)CC3)c2c1 | 1730 nM
68 | O=C(NC1CCN(c2ccnc3ccccc23)C1)c1cccc(C(F)(F)F)c1 (stereo not given) | 900 nM
69 | Cc1cccc2[nH]c(-c3ccc(-c4cccc(NC(=O)c5cncn5C)c4)cc3)nc12 | 860 nM
70 | Cc1ccc(C(=O)Nc2ccc(Nc3ccnc4cc(-c5ccncc5)ccc34)cc2O)cc1 | 930 nM
71 | CCOC(=O)N/N=C/[C@H](CCc1ccccc1)NC(=O)[C@H](CC(C)C)NC(=O)c1cc2cccc(OC)c2o1 | 880 nM
72 | CC(=NNC(=S)NC(C)(C)C)c1ccccn1 | 160 nM

Row | SMILES | IC50
73 | Cc1nc2sccn2c1C(=O)NCCc1ccccc1Cl | 800 nM
74 | CCCCCCC(C)(C)c1cc(O)c2c3c(c(=O)oc2c1)CCN(Cc1ccccc1)C3 | 220 nM
75 | O=C(NC1CCC(N2CCN(c3cccc(C(F)(F)F)c3)CC2)CC1)c1cc2ccccc2[nH]1 (stereo not given) | 720 nM
76 | Cc1cccc2[nH]c(-c3cccc(-c4cccc(NC(=O)c5cccnc5Cl)c4)c3)nc12 | 710 nM
77 | COc1cccc(CNC(=O)NC2CCN(c3ccnc(Nc4ccc(F)cc4)n3)C2)c1 (stereo not given) | 810 nM
78 | CNC(=O)C1Cc2c([nH]c3cc(Cl)ccc23)C2(CCN(CCc3ccccc3)CC2)N1 (stereo not given) | 930 nM
79 | CCN(CC)CCCCNc1cc(-c2[nH]c(C(C)(C)C)nc2-c2ccc3cc(OC)ccc3c2)ccn1 | 530 nM
80 | COc1ccc(CCNCCCCCCNCCc2ccc(OC)c(OC)c2Cl)c(Cl)c1OC | 900 nM
81 | CCC(C)CN1CCN(c2ccc(NC(=O)c3cccs3)cc2)CC1C (stereo not given) | 660 nM
82 | O=C1C2C(C(=O)N1c1ccccc1)[C@H]1S[C@@H]2c2c1ccc1ccccc21 (stereo not given in full) | 770 nM
83 | Cc1c(C)c2c(c(C)c1O)CC[C@@](C)(C(=O)NC1CCC(CN3CCC(c4c[nH]c5ccccc45)CC3)CC1)O2 (stereo not given in full) | 960 nM
84 | CCCCc1cc(NCc2ccncc2)nc(Nc2cccc(OC)c2)n1 | 740 nM
85 | Cc1cccc(NC(=O)N(Cc2cc3cc(C)cc(C)c3[nH]c2=O)C2CC2)c1 | 340 nM
86 | COc1ccc2ncc(Cl)c([C@H](O)CN3CCC(NCc4cc5c(cn4)OCCO5)CC3)c2c1 | 120 nM
87 | CC(C)c1ccc(NC(=O)c2cccc(CN3CCCN(Cc4cccc(O)c4)CC3)c2)cc1 | 770 nM
88 | CNc1ccc(CNCc2ccc(-c3ccc(-c4nc5ccc(F)cc5[nH]4)cc3)cc2)cc1 | 210 nM
89 | COC(=O)COc1cc(C(=O)NCCCCN2CCC(c3ccc4c(c3OC)CCCC4)CC2)ccc1-c1ccc(Cl)cc1 | 260 nM
90 | CN(C)CCOc1cc(NC(=O)Nc2cccc([N+](=O)[O-])c2)ccc1I | 740 nM
91 | COc1cc(NCCCNCC2c3ccccc3Oc3ccccc32)nc2ccccc12 | 330 nM
92 | CC(C)C[C@@H](NC(=O)NC1CCC(CCN2[C@@H]3CC[C@H]2CC(OC(=O)C(CO)c2ccccc2)C3)CC1)C(O)(c1ccccc1)c1ccccc1 (stereo not given in full) | 1070 nM
93 | Nc1nc(NCC2CCC(CNS(=O)(=O)c3cccc4ccccc34)CC2)nc2ccccc12 (stereo not given) | 800 nM
94 | Oc1c(C(Nc2nc3ccccc3s2)c2ccc(OC(F)F)cc2)ccc2cccnc12 (stereo not given) | 570 nM
95 | COc1ccccc1C(=O)Nc1cccc(N2CCC(NCc3ccc(-n4cccn4)cc3)CC2)c1 | 1190 nM

Source: PubChem BioAssay AID2305 (GlaxoSmithKline (GSK), 2010)
